Solubility in oils and solubility data for two molecules are collected here from patent publication US20080038359A1, “Stable Nanoparticle Formulations” (SANOFI-AVENTIS U.S. LLC, priority 2005, published 2008).

The conditions of data set [1]: generally known; cited from earlier work.
Data set [2] in a line: Solubility of Compound B in soy oil, estimated visually. The data set is classed as physicochemical. Conditions: oil or lipid, thermodynamic from solid; visual estimate by gradual addition of soy oil. Here is the method:
The solubility of Compound B in soy oil was initially estimated visually by gradual addition of soy oil to a weighed amount of the drug substance until the oil was almost clear (visually). An estimate of the drug substance in oil was calculated from the total amount of oil added.

On to `CCCCc1oc2ccc(C(=O)OC(C)C)cc2c1C(=O)c1ccc(CCCN(CCCC)CCCC)cc1.O=C(O)/C=C/C(=O)O` [Compound C, Isopropyl 2-butyl-3-[4-[3-(dibutylamino)propyl]benzoyl]-1-benzofuran-5-carboxylate fumarate], for which the solubility in oils entry in data set [1] is “low solubility”.

Take `Cn1c2ccc(F)cc2c2c(C(=O)N3CCCC3)cn(-c3ccccc3)c(=O)c21` [Compound B, 6-Fluoro-9-methyl-2-phenyl-4-(pyrrolidin-1-ylcarbonyl)-2,9-dihydro-1H-pyrido[3,4-b]indol-1-one]: the solubility (in general, how much of the substance goes into solution per volume) in data set [2] is less than 1000 µg/mL.
